Like-named read-outs stand apart in the source and are kept apart here.
Biological target: T1, recombinant human NaV1.8 stably transfected HEK cells (Homo sapiens, UniProt Q9Y5Y9)
T1 construct: expressed in transfected cells; host or cells: HEK cells, stably transfected
Assay: Compound profiling on NaV1.8, human NaV1.8 cell line, SyncroPatch384PE automated patch clamp assay (Example 115, third set of compounds, Table 27)
Type: cell-based
Conditions: human NaV1.8 HEK cells, Table 27 (third set of compounds)
Method: Compound Profiling on NaV1.8 Human NaV1.8 Cell Line SyncroPatch384PE Assay
Compounds were tested on recombinant human NaV1.8 stably transfected HEK cells using the SyncroPatch384PE system, an automated patch clamp device. Cells were cultured at 37° C./5% CO2 in DMEM medium supplemented with GlutaMAX I, NEAA 1%, FBS 10% and seeded in T175 flasks. Cells were cultured at 30° C. one day prior to recording sodium currents. On the day of the recordings, cells were detached with 0.05% Trypsin-EDTA, resuspended in serum free DMEM medium and placed into the SyncroPatch384PE 6° C. pre-cooled cell hotel and shaken at 200 rpm. Intracellular solution (IC) contained, in mM: 10, CsCl; 110, CsF; 20, EGTA; 10, HEPES. Extracellular solution (EC) contained, in mM: 140, NaCl; 4, KCl; 5, Glucose; 10, HEPES; 2, CaCl2; 1, MgCl2. Washing solution contained, in mM: 40, NMDG; 100, NaCl; 4, KCl; 10, Glucose; 10, HEPES; 5, CaCl2; 1, MgCl2.
Compounds were tested in quadruplicates in 0.1% DMSO and 0.030% Pluronic Acid. Compounds were diluted 1:3.33 in EC solution to create a 10-point concentration response curve, spanning a final concentration range from 10-0.0002 μM in the assay plate. Compounds with low nM potency were retested using a lower concentration range (1-0.00002 μM). Each plate contained tetracaine and another tool compound as positive controls. Up to 7 compounds were tested on one plate. 150 μM tetracaine and 0.1% DMSO were used as high and low controls, respectively.
Whole cell patch clamp recordings were conducted according to Nanion's standard procedure for SyncroPatch384PE®. Cells were held at a holding potential of −120 mV. A depolarization step to 10 mV for 30 ms was applied (P1 measurement), followed by a hyperpolarization step to −100 mV for 100 ms. An inactivation step at −40 mV for 10 sec was applied before stepping to −100 mV for 20 ms, followed by a step to 10 mV for 30 ms (P2 measurement) and then back to −100 mV for 30 ms. Sweep interval was 15 sec with a sampling rate of 10 kHz. Following establishment of the whole-cell configuration in EC, two washing steps with reference buffer were performed to stabilize the baseline. Compounds were then applied by the SynchroPatch into each well and the current was recorded for five minutes in EC, followed by application of tetracaine to achieve full block at the end of the experiment. The potency of the compounds was assessed on two read-outs, resting state block (P1 measurement) or inactivated state block (P2 measurement) to obtain IC50 values. Values were normalized to high (tetracaine) and low (DMSO) controls.

[1] = inactivated state block (P2 measurement), read-out: P2 IC50
[2] = resting state block (P1 measurement), read-out: P1 IC50

T1 sequence (Q9Y5Y9 whole entry): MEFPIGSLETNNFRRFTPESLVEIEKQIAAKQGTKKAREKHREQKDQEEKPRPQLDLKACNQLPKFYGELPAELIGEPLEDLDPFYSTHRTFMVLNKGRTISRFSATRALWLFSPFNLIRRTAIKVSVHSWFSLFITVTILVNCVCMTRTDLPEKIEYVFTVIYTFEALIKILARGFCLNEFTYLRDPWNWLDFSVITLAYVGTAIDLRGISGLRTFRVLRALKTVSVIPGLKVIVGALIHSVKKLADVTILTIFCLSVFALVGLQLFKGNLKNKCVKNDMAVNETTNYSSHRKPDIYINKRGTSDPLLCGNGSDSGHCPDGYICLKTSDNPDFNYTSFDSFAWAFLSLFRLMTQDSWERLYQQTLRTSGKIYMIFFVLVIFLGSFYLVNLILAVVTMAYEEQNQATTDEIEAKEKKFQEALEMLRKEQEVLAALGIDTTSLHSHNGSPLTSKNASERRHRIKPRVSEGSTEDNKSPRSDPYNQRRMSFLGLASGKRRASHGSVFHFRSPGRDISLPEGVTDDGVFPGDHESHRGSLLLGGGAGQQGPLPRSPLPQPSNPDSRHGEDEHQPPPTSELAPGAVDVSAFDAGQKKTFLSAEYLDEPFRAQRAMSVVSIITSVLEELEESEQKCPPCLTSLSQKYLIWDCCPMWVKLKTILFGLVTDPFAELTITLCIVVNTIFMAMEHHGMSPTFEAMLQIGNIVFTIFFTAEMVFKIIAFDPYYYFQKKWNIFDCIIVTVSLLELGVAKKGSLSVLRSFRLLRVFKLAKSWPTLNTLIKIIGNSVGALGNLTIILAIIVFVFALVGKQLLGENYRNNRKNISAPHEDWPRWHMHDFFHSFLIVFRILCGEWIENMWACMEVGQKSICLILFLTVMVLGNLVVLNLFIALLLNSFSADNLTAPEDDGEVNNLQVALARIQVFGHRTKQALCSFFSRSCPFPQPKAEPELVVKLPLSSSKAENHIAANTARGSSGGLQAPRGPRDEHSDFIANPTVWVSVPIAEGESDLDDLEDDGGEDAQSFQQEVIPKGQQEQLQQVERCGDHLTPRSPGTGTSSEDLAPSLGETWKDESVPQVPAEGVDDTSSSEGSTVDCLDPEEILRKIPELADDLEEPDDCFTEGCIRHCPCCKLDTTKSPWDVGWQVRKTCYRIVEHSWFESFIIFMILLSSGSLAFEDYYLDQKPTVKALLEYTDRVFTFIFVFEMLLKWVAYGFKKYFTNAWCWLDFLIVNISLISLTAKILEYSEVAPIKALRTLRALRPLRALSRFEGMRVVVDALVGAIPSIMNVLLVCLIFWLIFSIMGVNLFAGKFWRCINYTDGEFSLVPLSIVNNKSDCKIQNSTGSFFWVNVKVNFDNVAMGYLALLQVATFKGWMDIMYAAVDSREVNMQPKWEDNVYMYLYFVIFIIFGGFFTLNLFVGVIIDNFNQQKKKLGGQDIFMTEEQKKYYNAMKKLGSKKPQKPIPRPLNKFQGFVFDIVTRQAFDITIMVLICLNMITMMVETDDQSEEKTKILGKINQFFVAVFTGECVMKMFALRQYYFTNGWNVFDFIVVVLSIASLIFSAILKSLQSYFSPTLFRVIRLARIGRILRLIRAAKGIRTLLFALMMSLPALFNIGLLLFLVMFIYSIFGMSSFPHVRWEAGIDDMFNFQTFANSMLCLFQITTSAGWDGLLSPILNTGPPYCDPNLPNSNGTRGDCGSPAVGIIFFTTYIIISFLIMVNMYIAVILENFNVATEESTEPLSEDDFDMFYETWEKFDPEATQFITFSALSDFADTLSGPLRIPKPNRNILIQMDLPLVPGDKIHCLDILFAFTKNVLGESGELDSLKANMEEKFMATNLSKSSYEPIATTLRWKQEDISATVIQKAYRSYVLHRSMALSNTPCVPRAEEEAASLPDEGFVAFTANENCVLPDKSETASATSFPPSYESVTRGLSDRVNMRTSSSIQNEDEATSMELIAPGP

Compound	IC50 [1]	IC50 [2]
CS(=O)(=O)c1cccc(NC(=O)c2cc(C(F)(F)F)nnc2Oc2ccc(F)cc2Cl)n1 [Compound 68]	> 5000 nM	> 5000 nM
O=C1NCc2ccc(NC(=O)c3cc(C(F)(F)F)nnc3Oc3ccc(F)cc3Cl)cc21 [Compound 69]	> 5000 nM	> 5000 nM
Cc1ccc(F)cc1Oc1nnc(C(F)(F)F)cc1C(=O)Nc1cccc(S(C)(=O)=O)c1 [Compound 70]	501 to 1000 nM	501 to 1000 nM
Cc1ccc(F)cc1Oc1nnc(C(F)(F)F)cc1C(=O)Nc1cc(S(C)(=O)=O)ccc1F [Compound 71]	> 5000 nM	> 5000 nM
CS(=O)(=O)c1ccc(F)c(NC(=O)c2cc(C(F)(F)F)nnc2Oc2ccc(F)cc2Cl)c1 [Compound 72]	≤ 200 nM	≤ 200 nM
CS(=O)(=O)c1cccc(NC(=O)c2cc(C(F)(F)F)nnc2Oc2cc(F)ccc2Cl)c1 [Compound 73]	201 to 500 nM	201 to 500 nM
CS(=O)(=O)c1ccc(F)c(NC(=O)c2cc(C(F)(F)F)nnc2Oc2cc(F)ccc2Cl)c1 [Compound 74]	501 to 1000 nM	≤ 200 nM
COc1cc(C#N)ccc1Oc1nnc(C(F)(F)F)cc1C(=O)Nc1cccc(S(C)(=O)=O)c1 [Compound 75]	≤ 200 nM	≤ 200 nM
COc1cc(C#N)ccc1Oc1nnc(C(F)(F)F)cc1C(=O)Nc1cccc(C(N)=O)c1 [Compound 76]	≤ 200 nM	≤ 200 nM
COc1cc(C#N)ccc1Oc1nnc(C(F)(F)F)cc1C(=O)Nc1cc(S(C)(=O)=O)ccc1F [Compound 77]	201 to 500 nM	201 to 500 nM
Cc1cc(C#N)ccc1Oc1nnc(C(F)(F)F)cc1C(=O)Nc1cccc(S(C)(=O)=O)c1 [Compound 78]	> 5000 nM	> 5000 nM
Cc1cc(C#N)ccc1Oc1nnc(C(F)(F)F)cc1C(=O)Nc1cccc(C(N)=O)c1 [Compound 79]	201 to 500 nM	201 to 500 nM
COc1ccc(F)cc1Oc1nnc(C(F)(F)F)cc1C(=O)Nc1cccc(C(N)=O)c1 [Compound 80]	501 to 1000 nM	501 to 1000 nM
COc1ccc(F)cc1Oc1nnc(C(F)(F)F)cc1C(=O)Nc1cccc(S(C)(=O)=O)c1 [Compound 81]	1000 to 5000 nM	201 to 500 nM
Cc1cc(Br)ccc1Oc1nnc(C(F)(F)F)cc1C(=O)Nc1cccc(S(C)(=O)=O)c1 [Compound 82]	≤ 200 nM	≤ 200 nM
Cc1cc(Br)ccc1Oc1nnc(C(F)(F)F)cc1C(=O)Nc1ccc(C(N)=O)cc1 [Compound 83]	≤ 200 nM	≤ 200 nM
NC(=O)c1cncc(NC(=O)c2cc(C(F)(F)F)nnc2Oc2cc(F)ccc2Cl)c1 [Compound 84]	> 5000 nM	> 5000 nM
Cc1cc(F)ccc1Oc1nnc(C(F)(F)F)cc1C(=O)Nc1cccc(-c2cc[nH]n2)c1 [Compound 85]	> 5000 nM	> 5000 nM
COc1cc(NC(=O)c2cc(C(F)(F)F)nnc2Oc2ccc(F)cc2C)ccn1 [Compound 86]	501 to 1000 nM	501 to 1000 nM

Compound	IC50 [1]	IC50 [2]
Cc1cc(C2CC2)ccc1Oc1nnc(C(F)(F)F)cc1C(=O)Nc1cccc(S(C)(=O)=O)c1 [Compound 87]	≤ 200 nM	≤ 200 nM
O=C(Nc1cc[nH]c(=O)c1)c1cc(C(F)(F)F)nnc1Oc1ccc(F)cc1Cl [Compound 89, 3-(2-Chloro-4-fluorophenoxy)-N-(2-oxo-1,2-dihydropyridin-4-yl)-6-(trifluoromethyl)pyridazine-4-carboxamide]	1000 to 5000 nM	1000 to 5000 nM
Cc1c[nH]c(=O)cc1NC(=O)c1cc(C(F)(F)F)nnc1Oc1ccc(F)cc1C [Compound 90, 3-(4-Fluoro-2-methylphenoxy)-N-(5-methyl-2-oxo-1,2-dihydropyridin-4-yl)-6-(trifluoromethyl)pyridazine-4-carboxamide]	> 5000 nM	> 5000 nM
Cc1cc(F)ccc1Oc1nnc(C(F)(F)F)cc1C(=O)Nc1cc[nH]c(=O)c1C [Compound 91, 3-(4-Fluoro-2-methylphenoxy)-N-(3-methyl-2-oxo-1,2-dihydropyridin-4-yl)-6-(trifluoromethyl)pyridazine-4-carboxamide]	> 5000 nM	> 5000 nM
Cc1cc(F)ccc1Oc1nnc(C(F)(F)F)cc1C(=O)Nc1ccc(=O)[nH]c1C [Compound 92, 3-(4-Fluoro-2-methylphenoxy)-N-(2-methyl-6-oxo-1,6-dihydropyridin-3-yl)-6-(trifluoromethyl)pyridazine-4-carboxamide]	> 5000 nM	> 5000 nM
Cc1cc(C(=O)Nc2cccc(S(C)(=N)=O)c2)c(Oc2ccc(F)cc2C)nn1 (centres unmarked) [Compound 93, 3-(4-Fluoro-2-methyl-phenoxy)-6-methyl-N-[3-(methylsulfonimidoyl)phenyl]pyridazine-4-carboxamide]	> 5000 nM	1000 to 5000 nM
COc1cc(F)ccc1Oc1nnc(C)cc1C(=O)Nc1cccc(S(C)(=N)=O)c1 (centres unmarked) [Compound 94, 3-(4-Fluoro-2-methoxyphenoxy)-6-methyl-N-(3-(S-methylsulfonimidoyl)phenyl)pyridazine-4-carboxamide]	> 5000 nM	1000 to 5000 nM
CCOc1cc(F)ccc1Oc1nnc(C)cc1C(=O)Nc1cccc(S(C)(=N)=O)c1 (centres unmarked) [Compound 95, 3-(2-Ethoxy-4-fluorophenoxy)-6-methyl-N-(3-(S-methylsulfonimidoyl)phenyl)pyridazine-4-carboxamide]	> 5000 nM	> 5000 nM
CS(=N)(=O)c1cccc(NC(=O)c2cc(C(F)(F)F)nnc2Oc2ccc(F)cc2Cl)c1 (centres unmarked) [Compound 96, 3-(2-Chloro-4-fluorophenoxy)-N-(3-(S-methylsulfonimidoyl)phenyl)-6-(trifluoromethyl)pyridazine-4-carboxamide]	501 to 1000 nM	201 to 500 nM
CS(=N)(=O)c1cc(NC(=O)c2cc(C(F)(F)F)nnc2Oc2ccc(F)cc2Cl)ccn1 (centres unmarked) [Compound 97]	1000 to 5000 nM	1000 to 5000 nM
Cc1cc(F)ccc1Oc1nnc(C(F)(F)F)cc1C(=O)Nc1ccc(S(C)(=N)=O)cc1 (centres unmarked) [Compound 98, 3-(4-Fluoro-2-methylphenoxy)-N-(4-(S-methylsulfonimidoyl)phenyl)-6-(trifluoromethyl)pyridazine-4-carboxamide]	> 5000 nM	> 5000 nM
COc1cc(F)ccc1Oc1nnc(C(F)(F)F)cc1C(=O)Nc1cccc(S(C)(=N)=O)c1 (centres unmarked) [Compound 99, 3-(4-Fluoro-2-methoxyphenoxy)-N-(3-(S-methylsulfonimidoyl)phenyl)-6-(trifluoromethyl)pyridazine-4-carboxamide]	≤ 200 nM	≤ 200 nM
Cc1cc(F)ccc1Oc1nnc(C(F)(F)F)cc1C(=O)Nc1cccc([S@](C)(=N)=O)c1 [Compound 102, (R)-3-(4-fluoro-2-methylphenoxy)-N-(3-(S-methylsulfonimidoyl)phenyl)-6-(trifluoromethyl)pyridazine-4-carboxamide]	201 to 500 nM	501 to 1000 nM
Cc1cc(F)ccc1Oc1nnc(C(F)(F)F)cc1C(=O)Nc1cccc([S@@](C)(=N)=O)c1 [Compound 103, (S)-3-(4-fluoro-2-methylphenoxy)-N-(3-(S-methylsulfonimidoyl)phenyl)-6-(trifluoromethyl)pyridazine-4-carboxamide]	201 to 500 nM	> 5000 nM
COc1cc(F)ccc1Oc1nnc(C)cc1C(=O)Nc1cccc(S(C)(=O)=O)c1 [Compound 104]	> 5000 nM	> 5000 nM
COc1cc(F)ccc1Oc1nnc(C)cc1C(=O)Nc1cccc([S+](C)[O-])c1 (centres unmarked) [Compound 105]	> 5000 nM	> 5000 nM
Cc1cc(F)ccc1Oc1nnc(C(F)(F)F)cc1C(=O)Nc1ccc(C)c(S(C)(=O)=O)c1 [Compound 106, 3-(4-Fluoro-2-methylphenoxy)-N-(4-methyl-3-(methylsulfonyl)phenyl)-6-(trifluoromethyl)pyridazine-4-carboxamide]	201 to 500 nM	201 to 500 nM
COc1cc(F)ccc1Oc1nnc(C(F)(F)F)cc1C(=O)Nc1ccc(C)c(S(C)(=O)=O)c1 [Compound 107, 3-(4-Fluoro-2-methoxyphenoxy)-N-(4-methyl-3-(methylsulfonyl)phenyl)-6-(trifluoromethyl)pyridazine-4-carboxamide]	≤ 200 nM	≤ 200 nM

Reference: patent publication US20240336574A1 (LATIGO BIOTHERAPEUTICS, INC., priority 2021, published 2024)
